# Results from publication PMC5285354, “Cationic Net Charge and Counter Ion Type as Antimicrobial Activity Determinant Factors of Short Lipopeptides” (Frontiers in Microbiology, 2017).
# Where a SMILES comes first, the peptide text is derived from it. The star is where a group is joined. Palmitoyl = CCCCCCCCCCCCCCCC(=O)*; Myristoyl = CCCCCCCCCCCCCC(=O)*
# What was measured:
# Type in all cases: cell-based
# [1] = test system: human red blood cells; conditions: 1 h
# Procedure: The hemolytic activity of the lipopeptides was determined by exposing human red blood cells (4% v/v) to tested compounds at graded concentrations. Red blood cells were obtained from a healthy donor. EDTA was used to prevent the blood clotting. The plasma was removed via centrifugation and the erythrocytes were washed three times with PBS. The red blood cells were suspended in PBS and incubated with different concentrations of lipopeptides at 37°C for 1 h and centrifuged for 5 min at 1000 × g. The supernatants were transferred to a sterile 96-well plate and hemoglobin release was measured with an Epoch microplate spectrophotometer (BioTek, USA) by recording the absorbance at 550 nm. A 0.1% Triton X-100 solution was used as the positive control (100% of hemolysis) and pure PBS as the negative (0% of hemolysis). Minimum hemolytic concentration (MHC) was taken as the lowest concentration which induced 10% of hemolysis.
# [2] = test system: Candida albicans (ATCC 10231)
# [3] = test system: Proteus vulgaris (PCM 2668); conditions: 24 h
# [4] = test system: Pseudomonas aeruginosa (ATCC 9027); conditions: ATCC 9027, 18 h
# How it was run: (§1)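 Broth microdilution per CLSI: Mueller-Hinton broth, 10^5 cfu/mL inoculum, 18 h at 37°C for bacteria; Sabouraud dextrose broth, 10^3 cfu/mL, 48 h at 25°C for fungi. MIC (μg/mL) is the lowest lipopeptide concentration inhibiting visible growth; MBC/MFC also determined. Triplicate on three days.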
# [5] = test system: Escherichia coli (ATCC 25922); conditions: for MBC Escherichia coli, lipopeptides without TFA counter ion / MIC Escherichia coli / MIC Escherichia coli, lipopeptides without TFA counter ion: ATCC 25922, 18 h; for MBC Escherichia coli: ATCC 25922, 24 h
# How it was run: as §1
# [6] = test system: Klebsiella pneumoniae (ATCC 700603); conditions: for MBC Klebsiella pneumoniae, lipopeptides without TFA counter ion / MIC Klebsiella pneumoniae / MIC Klebsiella pneumoniae, lipopeptides without TFA counter ion: ATCC 700603, 18 h; for MBC Klebsiella pneumoniae: ATCC 700603, 24 h
# How it was run: as §1
# [7] = test system: Staphylococcus aureus (ATCC 25923); conditions: for MBC Staphylococcus aureus, lipopeptides without TFA counter ion / MIC Staphylococcus aureus / MIC Staphylococcus aureus, lipopeptides without TFA counter ion: ATCC 25923, 18 h; for MBC Staphylococcus aureus: ATCC 25923, 24 h
# How it was run: as §1
# [8] = test system: Candida tropicalis (PCM 2681); conditions: PCM 2681, 48 h
# How it was run: as §1
# [9] = test system: Aspergillus brasiliensis (ATCC 16404); conditions: ATCC 16404, 48 h
# How it was run: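 Lowest lipopeptide concentration (μg/mL) with no observable growth gave the MIC, alongside MBC/MFC, by CLSI microbroth dilution. Fungi: Sabouraud dextrose broth, 10^3 cfu/mL start, 25°C for 48 h; bacteria: MH broth, 10^5 cfu/mL, 37°C for 18 h. Run in triplicate, three separate days.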
# [10] = test system: Staphylococcus epidermidis (PCM 2118); conditions: for MIC Staphylococcus epidermidis: PCM 2118, 18 h; for MBC Staphylococcus epidermidis: PCM 2118, 24 h
# How it was run: as §1
# [11] = test system: Candida albicans (ATCC 10231); conditions: ATCC 10231, 48 h
# How it was run: as §1
# [12] = test system: Proteus vulgaris (PCM 2668); conditions: 18 h
# How it was run: as §1
# [13] = test system: Bacillus subtilis (ATCC 6633); conditions: for MIC Bacillus subtillis: ATCC 6633, 18 h; for MBC Bacillus subtillis: ATCC 6633, 24 h
# How it was run: as §1
# [14] = test system: Enterococcus faecalis (ATCC 29212); conditions: for MBC Enterococcus fecalis, lipopeptides without TFA counter ion / MIC Enterococcus fecalis / MIC Enterococcus fecalis, lipopeptides without TFA counter ion: ATCC 29212, 18 h; for MBC Enterococcus fecalis: ATCC 29212, 24 h
# How it was run: as §1
# [15] = test system: Pseudomonas aeruginosa (ATCC 9027); conditions: ATCC 9027, 24 h
MIC Pseudomonas aeruginosa [4],MIC Escherichia coli [5],MIC Klebsiella pneumoniae [6],MIC Staphylococcus aureus [7],MIC Candida tropicalis [8],MIC Aspergillus brasiliensis [9],MIC Staphylococcus epidermidis [10],Structure (SMILES),"MFC Candida albicans, lipopeptides without TFA counter ion [2]",MBC Proteus vulgaris [3],"MBC Escherichia coli, lipopeptides without TFA counter ion [5]","MIC Escherichia coli, lipopeptides without TFA counter ion [5]",MBC Escherichia coli [5],"MBC Klebsiella pneumoniae, lipopeptides without TFA counter ion [6]","MIC Klebsiella pneumoniae, lipopeptides without TFA counter ion [6]",MBC Klebsiella pneumoniae [6],"MBC Staphylococcus aureus, lipopeptides without TFA counter ion [7]","MIC Staphylococcus aureus, lipopeptides without TFA counter ion [7]",MBC Staphylococcus aureus [7],MFC Candida tropicalis [8],MFC Aspergillus brasiliensis [9],other results
128 µg/mL,128 µg/mL,64 µg/mL,64 µg/mL,>512 µg/mL,512 µg/mL,16 µg/mL,CCCCCCCCCCCCCC(=O)N[C@@H](CCCCN)C(N)=O [C14-K-NH2],512 µg/mL,>512 µg/mL,128 µg/mL,64 µg/mL,128 µg/mL,512 µg/mL,64 µg/mL,512 µg/mL,64 µg/mL,64 µg/mL,64 µg/mL,>512 µg/mL,512 µg/mL,"Hemolysis HC10 (MHC), concentration of lipopeptide inducing 10% of hemolysis [1]: 512 µg/mL; MBC Staphylococcus epidermidis [10]: 16 µg/mL; MFC Candida albicans [11]: 512 µg/mL; MIC Candida albicans [11]: 512 µg/mL; MIC Candida albicans, lipopeptides without TFA counter ion [11]: 512 µg/mL; MIC Proteus vulgaris [12]: >512 µg/mL; MIC Bacillus subtillis [13]: 32 µg/mL; MBC Bacillus subtillis [13]: 32 µg/mL; MBC Enterococcus fecalis, lipopeptides without TFA counter ion [14]: 64 µg/mL; MIC Enterococcus fecalis [14]: 64 µg/mL; MIC Enterococcus fecalis, lipopeptides without TFA counter ion [14]: 64 µg/mL; MBC Enterococcus fecalis [14]: 64 µg/mL; MBC Pseudomonas aeruginosa [15]: 1000 µg/mL"
32 µg/mL,128 µg/mL,64 µg/mL,64 µg/mL,256 µg/mL,128 µg/mL,16 µg/mL,CCCCCCCCCCCCCC(=O)N[C@@H](CCCCN)C(=O)NCC(=O)N[C@@H](CCCCN)C(N)=O [C14-KGK-NH2] (Myristoyl-Lys-Gly-Lys-NH2),128 µg/mL,>512 µg/mL,128 µg/mL,128 µg/mL,128 µg/mL,64 µg/mL,64 µg/mL,64 µg/mL,64 µg/mL,64 µg/mL,128 µg/mL,256 µg/mL,128 µg/mL,"Hemolysis HC10 (MHC), concentration of lipopeptide inducing 10% of hemolysis [1]: 128 µg/mL; MBC Staphylococcus epidermidis [10]: 16 µg/mL; MFC Candida albicans [11]: 128 µg/mL; MIC Candida albicans [11]: 128 µg/mL; MIC Candida albicans, lipopeptides without TFA counter ion [11]: 128 µg/mL; MIC Proteus vulgaris [12]: >512 µg/mL; MIC Bacillus subtillis [13]: 8 µg/mL; MBC Bacillus subtillis [13]: 8 µg/mL; MBC Enterococcus fecalis, lipopeptides without TFA counter ion [14]: 64 µg/mL; MIC Enterococcus fecalis [14]: 64 µg/mL; MIC Enterococcus fecalis, lipopeptides without TFA counter ion [14]: 64 µg/mL; MBC Enterococcus fecalis [14]: 64 µg/mL; MBC Pseudomonas aeruginosa [15]: 64 µg/mL"
64 µg/mL,128 µg/mL,128 µg/mL,64 µg/mL,512 µg/mL,128 µg/mL,32 µg/mL,CCCCCCCCCCCCCC(=O)N[C@@H](CCCCN)C(=O)NCC(=O)N[C@@H](CCCCN)C(=O)NCC(N)=O [C14-KGKG-NH2] (Myristoyl-KGKG-NH2),256 µg/mL,>512 µg/mL,128 µg/mL,128 µg/mL,128 µg/mL,128 µg/mL,128 µg/mL,128 µg/mL,64 µg/mL,64 µg/mL,128 µg/mL,512 µg/mL,128 µg/mL,"Hemolysis HC10 (MHC), concentration of lipopeptide inducing 10% of hemolysis [1]: 512 µg/mL; MBC Staphylococcus epidermidis [10]: 32 µg/mL; MFC Candida albicans [11]: 128 µg/mL; MIC Candida albicans [11]: 128 µg/mL; MIC Candida albicans, lipopeptides without TFA counter ion [11]: 256 µg/mL; MIC Proteus vulgaris [12]: >512 µg/mL; MIC Bacillus subtillis [13]: 16 µg/mL; MBC Bacillus subtillis [13]: 16 µg/mL; MBC Enterococcus fecalis, lipopeptides without TFA counter ion [14]: 64 µg/mL; MIC Enterococcus fecalis [14]: 64 µg/mL; MIC Enterococcus fecalis, lipopeptides without TFA counter ion [14]: 64 µg/mL; MBC Enterococcus fecalis [14]: 64 µg/mL; MBC Pseudomonas aeruginosa [15]: 128 µg/mL"
8 µg/mL,8 µg/mL,4 µg/mL,4 µg/mL,128 µg/mL,128 µg/mL,4 µg/mL,CCCCCCCCCCCCCCCC(=O)N[C@@H](CCCCN)C(=O)N[C@@H](CCCCN)C(=O)N[C@@H](CCCCN)C(=O)N[C@@H](CCCCN)C(N)=O [C16-KKKK-NH2] (Palmitoyl-KKKK-NH2),128 µg/mL,>512 µg/mL,8 µg/mL,8 µg/mL,8 µg/mL,4 µg/mL,4 µg/mL,8 µg/mL,4 µg/mL,4 µg/mL,8 µg/mL,128 µg/mL,128 µg/mL,"MBC Staphylococcus epidermidis [10]: 4 µg/mL; MFC Candida albicans [11]: 128 µg/mL; MIC Candida albicans [11]: 128 µg/mL; MIC Candida albicans, lipopeptides without TFA counter ion [11]: 128 µg/mL; MIC Proteus vulgaris [12]: >512 µg/mL; MIC Bacillus subtillis [13]: 4 µg/mL; MBC Bacillus subtillis [13]: 4 µg/mL; MBC Enterococcus fecalis, lipopeptides without TFA counter ion [14]: 8 µg/mL; MIC Enterococcus fecalis [14]: 16 µg/mL; MIC Enterococcus fecalis, lipopeptides without TFA counter ion [14]: 4 µg/mL; MBC Enterococcus fecalis [14]: 16 µg/mL; MBC Pseudomonas aeruginosa [15]: 8 µg/mL"
